Measured values as given in patent publication US9693556B2, “Herbicidal pyridazinone derivatives” (SYNGENTA LIMITED, priority 2011, dated 2017).

What was measured:
Type in all cases: in vivo
[1] = tested on: Echinochloa crus-galli (ECHCG); assay: Post-emergence herbicidal glasshouse test on Echinochloa crus-galli; conditions: post-emergence; 1000 g/h; evaluated after 13 days
How it was run: (§1)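 Steps: sow seeds in standard soil; cultivate 1 d (pre-) or 8 d (post-emergence) at 24/16 °C, 14 h light, 65% humidity; spray 1000 g/h in acetone/water plus Tween 20; grow on, watering twice daily; score percentage damage after 13 d.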

Solanum nigrum (SOLNI) [2] = assay: Pre-emergence herbicidal glasshouse test on Solanum nigrum; conditions: pre-emergence; 1000 g/h; evaluated after 13 days
How it was run: as §1

[3] = tested on: Alopecurus myosuroides (ALOMY); assay: Post-emergence herbicidal glasshouse test on Alopecurus myosuroides; conditions: post-emergence; 1000 g/h; evaluated after 13 days
How it was run: as §1

[4] = tested on: Amaranthus retoflexus (AMARE); assay: Pre-emergence herbicidal glasshouse test on Amaranthus retoflexus; conditions: pre-emergence; 1000 g/h; evaluated after 13 days
How it was run: as §1

[5] = tested on: Ipomoea hederacea (IPOHE); assay: Pre-emergence herbicidal glasshouse test on Ipomoea hederacea; conditions: pre-emergence; 1000 g/h; evaluated after 13 days
How it was run: as §1

Solanum nigrum (SOLNI) [6] = assay: Post-emergence herbicidal glasshouse test on Solanum nigrum; conditions: post-emergence; 1000 g/h; evaluated after 13 days
How it was run: as §1

[7] = tested on: Echinochloa crus-galli (ECHCG); assay: Pre-emergence herbicidal glasshouse test on Echinochloa crus-galli; conditions: pre-emergence; 1000 g/h; evaluated after 13 days
How it was run: as §1

[8] = tested on: Alopecurus myosuroides (ALOMY); assay: Pre-emergence herbicidal glasshouse test on Alopecurus myosuroides; conditions: pre-emergence; 1000 g/h; evaluated after 13 days
How it was run: as §1

[9] = tested on: Ipomoea hederacea (IPOHE); assay: Post-emergence herbicidal glasshouse test on Ipomoea hederacea; conditions: post-emergence; 1000 g/h; evaluated after 13 days
How it was run: as §1

[10] = tested on: Amaranthus retoflexus (AMARE); assay: Post-emergence herbicidal glasshouse test on Amaranthus retoflexus; conditions: post-emergence; 1000 g/h; evaluated after 13 days
How it was run: as §1

Setaria faberi (SETFA) [11] = assay: Post-emergence herbicidal glasshouse test on Setaria faberi; conditions: post-emergence; 1000 g/h; evaluated after 13 days
How it was run: as §1

Setaria faberi (SETFA) [12] = assay: Pre-emergence herbicidal glasshouse test on Setaria faberi; conditions: pre-emergence; 1000 g/h; evaluated after 13 days
How it was run: as §1

Cn1ncc(-c2ccc(C(F)(F)F)nc2N2CCOCC2)c(O)c1=O [Compound 1.075]
1 (1=0-19% damage): PRE Application ALOMY herbicidal damage (five point scale) [8] | PRE Application SETFA herbicidal damage (five point scale) (Setaria faberi (SETFA) [12])
2 (2=20-39% damage): PRE Application IPOHE herbicidal damage (five point scale) [5] | POST Application SETFA herbicidal damage (five point scale) (Setaria faberi (SETFA) [11])
5 (5=80-100% damage): POST Application ECHCG herbicidal damage (five point scale) [1] | PRE Application SOLNI herbicidal damage (five point scale) (Solanum nigrum (SOLNI) [2]) | PRE Application AMARE herbicidal damage (five point scale) [4] | POST Application SOLNI herbicidal damage (five point scale) (Solanum nigrum (SOLNI) [6]) | PRE Application ECHCG herbicidal damage (five point scale) [7] | POST Application IPOHE herbicidal damage (five point scale) [9] | POST Application AMARE herbicidal damage (five point scale) [10]
3 (3=40-59% damage): POST Application ALOMY herbicidal damage (five point scale) [3]

Cn1ncc(-c2ccc(C(F)(F)F)cc2Cl)c(O)c1=O [Compound 1.076]
2 (2=20-39% damage): POST Application ECHCG herbicidal damage (five point scale) [1] | PRE Application SOLNI herbicidal damage (five point scale) (Solanum nigrum (SOLNI) [2]) | POST Application ALOMY herbicidal damage (five point scale) [3]
4 (4=60-79% damage): POST Application SOLNI herbicidal damage (five point scale) (Solanum nigrum (SOLNI) [6]) | POST Application IPOHE herbicidal damage (five point scale) [9]
1 (1=0-19% damage): PRE Application IPOHE herbicidal damage (five point scale) [5] | PRE Application ECHCG herbicidal damage (five point scale) [7] | PRE Application ALOMY herbicidal damage (five point scale) [8] | POST Application SETFA herbicidal damage (five point scale) (Setaria faberi (SETFA) [11]) | PRE Application SETFA herbicidal damage (five point scale) (Setaria faberi (SETFA) [12])
5 (5=80-100% damage): PRE Application AMARE herbicidal damage (five point scale) [4] | POST Application AMARE herbicidal damage (five point scale) [10]

Cn1ncc(-c2ccc(Cl)cc2Cl)c(O)c1=O [Compound 1.077]
4 (4=60-79% damage): POST Application AMARE herbicidal damage (five point scale) [10]
3 (3=40-59% damage): PRE Application SOLNI herbicidal damage (five point scale) (Solanum nigrum (SOLNI) [2]) | PRE Application AMARE herbicidal damage (five point scale) [4]
2 (2=20-39% damage): POST Application SOLNI herbicidal damage (five point scale) (Solanum nigrum (SOLNI) [6]) | POST Application IPOHE herbicidal damage (five point scale) [9]
1 (1=0-19% damage): POST Application ECHCG herbicidal damage (five point scale) [1] | POST Application ALOMY herbicidal damage (five point scale) [3] | PRE Application IPOHE herbicidal damage (five point scale) [5] | PRE Application ECHCG herbicidal damage (five point scale) [7] | PRE Application ALOMY herbicidal damage (five point scale) [8] | POST Application SETFA herbicidal damage (five point scale) (Setaria faberi (SETFA) [11]) | PRE Application SETFA herbicidal damage (five point scale) (Setaria faberi (SETFA) [12])

Cn1ncc(-n2ccc(C(F)(F)F)cc2=O)c(O)c1=O [Compound 1.078]
5 (5=80-100% damage): POST Application ECHCG herbicidal damage (five point scale) [1] | PRE Application SOLNI herbicidal damage (five point scale) (Solanum nigrum (SOLNI) [2]) | PRE Application AMARE herbicidal damage (five point scale) [4] | POST Application SOLNI herbicidal damage (five point scale) (Solanum nigrum (SOLNI) [6]) | PRE Application ECHCG herbicidal damage (five point scale) [7] | POST Application AMARE herbicidal damage (five point scale) [10] | POST Application SETFA herbicidal damage (five point scale) (Setaria faberi (SETFA) [11]) | PRE Application SETFA herbicidal damage (five point scale) (Setaria faberi (SETFA) [12])
4 (4=60-79% damage): POST Application IPOHE herbicidal damage (five point scale) [9]
2 (2=20-39% damage): PRE Application IPOHE herbicidal damage (five point scale) [5] | PRE Application ALOMY herbicidal damage (five point scale) [8]
1 (1=0-19% damage): POST Application ALOMY herbicidal damage (five point scale) [3]

Cn1ncc(-c2ccc(Br)cc2S(C)(=O)=O)c(O)c1=O [Compound 1.081]
2 (2=20-39% damage): PRE Application IPOHE herbicidal damage (five point scale) [5]
5 (5=80-100% damage): POST Application ECHCG herbicidal damage (five point scale) [1] | PRE Application SOLNI herbicidal damage (five point scale) (Solanum nigrum (SOLNI) [2]) | POST Application ALOMY herbicidal damage (five point scale) [3] | PRE Application AMARE herbicidal damage (five point scale) [4] | POST Application SOLNI herbicidal damage (five point scale) (Solanum nigrum (SOLNI) [6]) | PRE Application ECHCG herbicidal damage (five point scale) [7] | PRE Application ALOMY herbicidal damage (five point scale) [8] | POST Application IPOHE herbicidal damage (five point scale) [9] | POST Application AMARE herbicidal damage (five point scale) [10] | POST Application SETFA herbicidal damage (five point scale) (Setaria faberi (SETFA) [11]) | PRE Application SETFA herbicidal damage (five point scale) (Setaria faberi (SETFA) [12])

Cc1cc(Cl)ccc1-c1cnn(C)c(=O)c1O [Compound 1.082]
1 (1=0-19% damage): POST Application ECHCG herbicidal damage (five point scale) [1] | PRE Application SOLNI herbicidal damage (five point scale) (Solanum nigrum (SOLNI) [2]) | POST Application ALOMY herbicidal damage (five point scale) [3] | PRE Application AMARE herbicidal damage (five point scale) [4] | PRE Application IPOHE herbicidal damage (five point scale) [5] | PRE Application ECHCG herbicidal damage (five point scale) [7] | PRE Application ALOMY herbicidal damage (five point scale) [8] | POST Application SETFA herbicidal damage (five point scale) (Setaria faberi (SETFA) [11]) | PRE Application SETFA herbicidal damage (five point scale) (Setaria faberi (SETFA) [12])
2 (2=20-39% damage): POST Application IPOHE herbicidal damage (five point scale) [9] | POST Application AMARE herbicidal damage (five point scale) [10]
4 (4=60-79% damage): POST Application SOLNI herbicidal damage (five point scale) (Solanum nigrum (SOLNI) [6])

Cc1cc(C#N)ccc1-c1cnn(C)c(=O)c1O [Compound 1.084]
4 (4=60-79% damage): POST Application SOLNI herbicidal damage (five point scale) (Solanum nigrum (SOLNI) [6]) | POST Application IPOHE herbicidal damage (five point scale) [9] | POST Application AMARE herbicidal damage (five point scale) [10]
3 (3=40-59% damage): POST Application ECHCG herbicidal damage (five point scale) [1]
2 (2=20-39% damage): POST Application SETFA herbicidal damage (five point scale) (Setaria faberi (SETFA) [11])
1 (1=0-19% damage): PRE Application SOLNI herbicidal damage (five point scale) (Solanum nigrum (SOLNI) [2]) | POST Application ALOMY herbicidal damage (five point scale) [3] | PRE Application AMARE herbicidal damage (five point scale) [4] | PRE Application IPOHE herbicidal damage (five point scale) [5] | PRE Application ECHCG herbicidal damage (five point scale) [7] | PRE Application ALOMY herbicidal damage (five point scale) [8] | PRE Application SETFA herbicidal damage (five point scale) (Setaria faberi (SETFA) [12])

Cn1ncc(-c2cc(F)ccc2Cl)c(O)c1=O [Compound 1.086]
1 (1=0-19% damage): POST Application ECHCG herbicidal damage (five point scale) [1] | PRE Application SOLNI herbicidal damage (five point scale) (Solanum nigrum (SOLNI) [2]) | POST Application ALOMY herbicidal damage (five point scale) [3] | PRE Application AMARE herbicidal damage (five point scale) [4] | PRE Application IPOHE herbicidal damage (five point scale) [5] | POST Application SOLNI herbicidal damage (five point scale) (Solanum nigrum (SOLNI) [6]) | PRE Application ECHCG herbicidal damage (five point scale) [7] | PRE Application ALOMY herbicidal damage (five point scale) [8] | POST Application IPOHE herbicidal damage (five point scale) [9] | POST Application AMARE herbicidal damage (five point scale) [10] | POST Application SETFA herbicidal damage (five point scale) (Setaria faberi (SETFA) [11]) | PRE Application SETFA herbicidal damage (five point scale) (Setaria faberi (SETFA) [12])

Cn1ncc(-c2cc(Cl)c(Cl)cc2Cl)c(O)c1=O [Compound 1.089]
1 (1=0-19% damage): POST Application ECHCG herbicidal damage (five point scale) [1] | PRE Application SOLNI herbicidal damage (five point scale) (Solanum nigrum (SOLNI) [2]) | POST Application ALOMY herbicidal damage (five point scale) [3] | PRE Application AMARE herbicidal damage (five point scale) [4] | PRE Application IPOHE herbicidal damage (five point scale) [5] | POST Application SOLNI herbicidal damage (five point scale) (Solanum nigrum (SOLNI) [6]) | PRE Application ECHCG herbicidal damage (five point scale) [7] | PRE Application ALOMY herbicidal damage (five point scale) [8] | POST Application IPOHE herbicidal damage (five point scale) [9] | POST Application AMARE herbicidal damage (five point scale) [10] | POST Application SETFA herbicidal damage (five point scale) (Setaria faberi (SETFA) [11]) | PRE Application SETFA herbicidal damage (five point scale) (Setaria faberi (SETFA) [12])
